Legend:
CYP72A1 P450 = test: Metabolism of pesticide substrates by the CYP72A1 P450 expressed with a reductase (yeast microsomes, [14C]-labeled substrates, HPLC); type: in vitro ADME, Zea mays (maize); conditions: expressed in the presence of a reductase; chromatographs FIGS. 8-11
From the text: Both genes (CYP72A1 and CYP92A1), obtained as described in Example 1, were introduced into pYeDP60 vector for yeast expression. CYP72A1 was introduced as a full length gene with in-frame Met 1 and 8 as the start codons, while CYP92A1 was modified for the expression.
Expression strategies include using both full length or truncated (Met 8 start site) CYP72A1 cDNA in yeast strains WAT11, WAT21 W (R) from Philippe Urban and Denis Pompon, with, optionally, yeast vector pYeDP60. Expression is ideally achieved with full length cDNA and WAT11. Expression may also require 36 hours rather than 24 hours of galactose induction prior to microsome preparation. Glucose (SGI) or galactose (SLI) media prior to induction will give expression.
Metabolism experiments can be accomplished using microsomes prepared from yeast cells. The substrates can be incubated with [^14C]-labeled substrates and products analyzed by HPLC.

soybean P450 = conditions: cited from earlier work
CYP73A1 = biological target: T1, CYP73A1 (Helianthus tuberosus, UniProt Q04468); conditions: cited from earlier work
T1 sequence (Q04468 1-505): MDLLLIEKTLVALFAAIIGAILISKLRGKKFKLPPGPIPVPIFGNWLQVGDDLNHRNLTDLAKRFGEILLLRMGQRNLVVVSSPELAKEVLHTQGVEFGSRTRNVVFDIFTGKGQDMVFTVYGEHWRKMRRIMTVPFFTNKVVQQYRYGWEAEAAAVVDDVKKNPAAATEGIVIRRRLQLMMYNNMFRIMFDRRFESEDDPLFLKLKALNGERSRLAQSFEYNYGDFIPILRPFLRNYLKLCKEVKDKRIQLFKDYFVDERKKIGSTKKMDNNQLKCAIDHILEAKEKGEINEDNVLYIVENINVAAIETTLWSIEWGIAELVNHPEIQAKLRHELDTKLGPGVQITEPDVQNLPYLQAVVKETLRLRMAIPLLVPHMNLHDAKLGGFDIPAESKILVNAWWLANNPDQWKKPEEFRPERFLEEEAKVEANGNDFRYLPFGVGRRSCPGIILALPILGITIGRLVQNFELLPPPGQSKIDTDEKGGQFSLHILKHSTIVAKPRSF

CYP72A1 = test: Induction of CYP72A1 expression by NA-treatment (Northern blot, maize seedlings); type: in vivo; conditions: FIG. 5
Experimental: (§1) A maize cDNA library was constructed from napthalic anhydride (NA)-treated Pioneer 3343IR 3.5-day-old seedlings using lambda-ZAPII vector kit (Stratagene).
(§2) Northern blot analysis was performed with total RNA isolated from control and […] and hybridized under high stringency conditions. To estimate the copy number, Southern blot analysis was performed using genomic DNA from 3343IR maize which was digested with SacI EcoRV, EcoRI, HindIII, and BamHI. The analysis was carried out under high stringency (65 degrees Celsius in 0.1×SSC and 0.1% SDS).
(§3) Based on the results of the genomic Southern blot analysis, the hybridization patterns were consistent with those predicted from the restriction patterns of the corresponding cDNAs. […] Certain physico-chemical characteristics for the deduced proteins, antigenicity and secondary structure were calculated using Network Protein Sequence Analysis at IBCP, France.

CYP92A1 = test: Induction of CYP92A1 expression by NA-treatment (Northern blot, maize seedlings); type: in vivo; conditions: FIG. 5
Experimental: as §1, §2, §3

corn line GA209 = conditions: FIG. 12, thesis of Laura Boldt; cited from earlier work
[1] = test system: multiple pesticide metabolizing P450 in corn; conditions: FIG. 13, cited from earlier work

Structure (SMILES)	metabolism of the substrate by the CYP72A1 P450 (CYP72A1 P450)	sensitivity of corn line GA209 to the herbicide (corn line GA209)	other results
Cc1ccc(NC(=O)N(C)C)cc1Cl [chlortoluron]	shown to metabolize	–	metabolism by a soybean P450 (soybean P450): shown to metabolize; metabolism by CYP73A1 (CYP73A1): shown to metabolize
CCc1cccc(CC)c1N(COC)C(=O)CCl [alachlor]	Unmetabolized	–	–
CCOC(=O)CC(SP(=S)(OC)OC)C(=O)OCC (stereo not drawn) [malathion]	shown to metabolize	–	–
COc1cc(Cl)nc(NC(=O)NS(=O)(=O)c2ccccc2C(=O)O)n1 [chlorimuron]	shown to metabolize	–	–
O=C(O)COc1ccc(Cl)cc1Cl [2,4-D]	Unmetabolized	–	–
CON(C)C(=O)Nc1ccc(Cl)c(Cl)c1 [linuron]	Unmetabolized	–	metabolism by a soybean P450 (soybean P450): shown to metabolize
O=C1OC(=O)c2cccc3cccc1c23 [NA, napthalic anhydride]	–	–	induction of CYP72A1 expression (CYP72A1): highly induced; induction of CYP92A1 expression (CYP92A1): induced significantly less
O=C(Nc1nc(OC(F)F)cc(OC(F)F)n1)NS(=O)(=O)c1ccccc1C(=O)O [primisulfuron]	–	sensitive	–
COc1cc(OC)nc(NC(=O)NS(=O)(=O)c2ncccc2C(=O)N(C)C)n1 [nicosulfuron]	–	sensitive	–
CCc1cnc(C2=NC(C)(C(C)C)C(=O)N2)c(C(=O)O)c1 (stereo not drawn) [imazethapyr]	–	sensitive	–
CCOP(=S)(OCC)SCS(=O)(=O)C(C)(C)C [terbufos-sulfone]	–	–	inhibition of in-vitro metabolism of bentazon ([1]; substrate bentazon): inhibited; inhibition of in-vitro metabolism of chlorimuron ([1]; substrate chlorimuron): inhibited; inhibition of in-vitro metabolism of imazethapyr ([1]; substrate imazethapyr): inhibited; inhibition of in-vitro metabolism of malathion ([1]; substrate malathion): inhibited; inhibition of in-vitro metabolism of nicosulfuron ([1]; substrate nicosulfuron): inhibited
CC(C)N1C(=O)c2ccccc2NS1(=O)=O [bentazon]	shown to metabolize	sensitive	–
